Experiments:
Format in all cases: in vivo
[1] = tested on: upland rice (Oryza sp., var. Tebonnet, RICE); assay: Pre-emerge test, crop safety; conditions: pre-emerge, rated 14 days after application, 0 = no damage, 100 = complete death
Outline: (§1)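 Fourteen days after spraying, crop and weed injury was graded visually from 0, no effect, to 100, every plant dead. Test substances were dissolved in acetone and applied at 15–1000 g ai/ha with a flat-fan nozzle. Application was either pre-emergence, one day after sowing, or post-emergence at the 2–3 leaf stage.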

[2] = tested on: field corn (Zea mays L., var. Dekalb 535, CORN); assay: Pre-emerge test, crop safety; conditions: pre-emerge, rated 14 days after application, 0 = no damage, 100 = complete death
Outline: as §1

[3] = tested on: upland rice (Oryza sp., var. Tebonnet, RICE); assay: Post-emerge test, crop safety; conditions: phytotoxicity rating 0-100 (0 no damage, 100 complete death), 14 days after application
Outline: (§2)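 Herbicidal damage is scored 0 (none) to 100 (complete plant death) two weeks after a simulated field spray. Rates span 15–1000 g ai/ha, delivered in acetone at 187 l/ha. For post-emergence treatments, plants have 2–3 leaves and the spray carries 0.25% v/v non-ionic surfactant.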

[4] = tested on: field corn (Zea mays L., var. Dekalb 535, CORN); assay: Post-emerge test, crop safety; conditions: phytotoxicity rating 0-100 (0 no damage, 100 complete death), 14 days after application
Outline: as §2

[5] = tested on: green foxtail (Setaria viridis, SETVI); assay: Pre-emerge test, greenhouse herbicide activity screening; conditions: pre-emerge, rated 14 days after application, 0 = no damage, 100 = complete death
Outline: as §2

[6] = tested on: lambsquarters (Chenopodium album, CHEAL); assay: as above; conditions: pre-emerge, rated 14 days after application, 0 = no damage, 100 = complete death
Outline: as §2

[7] = tested on: barnyardgrass (Echinochloa crus-galli, ECHCG); assay: as above; conditions: pre-emerge, rated 14 days after application, 0 = no damage, 100 = complete death
Outline: as §2

[8] = tested on: sicklepod (Cassia obtusifolia, CASOB); assay: as above; conditions: pre-emerge, rated 14 days after application, 0 = no damage, 100 = complete death
Outline: as §2

[9] = tested on: ivyleaf morningglory (Ipomoea hederacea, IPOHE); assay: as above; conditions: pre-emerge, rated 14 days after application, 0 = no damage, 100 = complete death
Outline: as §2

[10] = tested on: common ragweed (Ambrosia artemisizfolia L., AMBEL); assay: as above; conditions: pre-emerge, rated 14 days after application, 0 = no damage, 100 = complete death
Outline: as §2

[11] = tested on: large crabgrass (Digitaria sanguinalis, DIGSA); assay: as above; conditions: pre-emerge, rated 14 days after application, 0 = no damage, 100 = complete death
Outline: as §2

[12] = tested on: velvetleaf (Abutilon theophrasti, ABUTH); assay: as above; conditions: pre-emerge, rated 14 days after application, 0 = no damage, 100 = complete death
Outline: as §2

[13] = tested on: johnsongrass (Sorghum halepense, SORHA); assay: as above; conditions: pre-emerge, rated 14 days after application, 0 = no damage, 100 = complete death
Outline: as §2

[14] = tested on: green foxtail (Setaria viridis, SETVI); assay: Post-emerge test, greenhouse herbicide activity screening; conditions: phytotoxicity rating 0-100 (0 no damage, 100 complete death), 14 days after application
Outline: (§3)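 Plants grown in 10 cm pots of sandy loam mix received acetone-dissolved compounds through a moving flat-fan nozzle. Doses ranged from 15 to 1000 g ai/ha. Pre-emerge pots were seeded one day earlier, post-emerge pots 8–21 days earlier. Fourteen days on, each pot was graded 0–100 for damage.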

[15] = tested on: lambsquarters (Chenopodium album, CHEAL); assay: as above; conditions: phytotoxicity rating 0-100 (0 no damage, 100 complete death), 14 days after application
Outline: as §3

[16] = tested on: barnyardgrass (Echinochloa crus-galli, ECHCG); assay: as above; conditions: phytotoxicity rating 0-100 (0 no damage, 100 complete death), 14 days after application
Outline: as §3

[17] = tested on: sicklepod (Cassia obtusifolia, CASOB); assay: as above; conditions: phytotoxicity rating 0-100 (0 no damage, 100 complete death), 14 days after application
Outline: as §3

[18] = tested on: redroot pigweed (Amaranthus retroflexus, AMARE); assay: as above; conditions: phytotoxicity rating 0-100 (0 no damage, 100 complete death), 14 days after application
Outline: as §3

[19] = tested on: ivyleaf morningglory (Ipomoea hederacea, IPOHE); assay: as above; conditions: phytotoxicity rating 0-100 (0 no damage, 100 complete death), 14 days after application
Outline: as §3

[20] = tested on: common ragweed (Ambrosia artemisizfolia L., AMBEL); assay: as above; conditions: phytotoxicity rating 0-100 (0 no damage, 100 complete death), 14 days after application
Outline: as §3

[21] = tested on: large crabgrass (Digitaria sanguinalis, DIGSA); assay: as above; conditions: phytotoxicity rating 0-100 (0 no damage, 100 complete death), 14 days after application
Outline: as §3

[22] = tested on: velvetleaf (Abutilon theophrasti, ABUTH); assay: as above; conditions: phytotoxicity rating 0-100 (0 no damage, 100 complete death), 14 days after application
Outline: as §3

[23] = tested on: johnsongrass (Sorghum halepense, SORHA); assay: as above; conditions: phytotoxicity rating 0-100 (0 no damage, 100 complete death), 14 days after application
Outline: as §3

[24] = tested on: redroot pigweed (Amaranthus retroflexus, AMARE); assay: Pre-emerge test, greenhouse herbicide activity screening; conditions: pre-emerge, rated 14 days after application, 0 = no damage, 100 = complete death
Outline: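 Visual ratings on a 0-100 scale (0 no damage, 100 all plants dead) were taken at 14 days after treatment. Rates of 15-1000 g ai/ha in acetone, 187 l/ha, were sprayed onto soil one day after planting (pre-emerge) or onto 2-3 leaf plants with 0.25% v/v surfactant (post-emerge).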

COc1c(Cl)cc(F)c(-n2c(=O)c([N+](=O)[O-])c(C(F)(F)F)n(C)c2=O)c1[N+](=O)[O-] [Compound 1-9]
Pre-emerge crop damage RICE (phytotoxicity rating, scale 0-100) ([1]; 63 g ai/ha): 95 | Pre-emerge crop damage CORN (phytotoxicity rating, scale 0-100) ([2]; 63 g ai/ha): 90 | Post-emerge Herbicidal Activity RICE (crop damage) ([3]; 63 g ai/ha): 40 | Post-emerge Herbicidal Activity CORN (crop damage) ([4]; 63 g ai/ha): 30 | Pre-emerge Herbicidal Activity SETVI (phytotoxicity rating, scale 0-100) ([5]; 63 g ai/ha): 100 | Pre-emerge Herbicidal Activity CHEAL (phytotoxicity rating, scale 0-100) ([6]; 63 g ai/ha): 100 | Pre-emerge Herbicidal Activity ECHCG (phytotoxicity rating, scale 0-100) ([7]; 63 g ai/ha): 100 | Pre-emerge Herbicidal Activity CASOB (phytotoxicity rating, scale 0-100) ([8]; 63 g ai/ha): 100 | Pre-emerge Herbicidal Activity IPOHE (phytotoxicity rating, scale 0-100) ([9]; 63 g ai/ha): 100 | Pre-emerge Herbicidal Activity AMBEL (phytotoxicity rating, scale 0-100) ([10]; 63 g ai/ha): 100 | Pre-emerge Herbicidal Activity DIGSA (phytotoxicity rating, scale 0-100) ([11]; 63 g ai/ha): 100 | Pre-emerge Herbicidal Activity ABUTH (phytotoxicity rating, scale 0-100) ([12]; 63 g ai/ha): 100 | Pre-emerge Herbicidal Activity SORHA (phytotoxicity rating, scale 0-100) ([13]; 63 g ai/ha): 100 | Post-emerge Herbicidal Activity SETVI ([14]; 63 g ai/ha): 90 | Post-emerge Herbicidal Activity CHEAL ([15]; 63 g ai/ha): 100 | Post-emerge Herbicidal Activity ECHCG ([16]; 63 g ai/ha): 70 | Post-emerge Herbicidal Activity CASOB ([17]; 63 g ai/ha): 90 | Post-emerge Herbicidal Activity AMARE ([18]; 63 g ai/ha): 100 | Post-emerge Herbicidal Activity IPOHE ([19]; 63 g ai/ha): 100 | Post-emerge Herbicidal Activity AMBEL ([20]; 63 g ai/ha): 90 | Post-emerge Herbicidal Activity DIGSA ([21]; 63 g ai/ha): 90 | Post-emerge Herbicidal Activity ABUTH ([22]; 63 g ai/ha): 100 | Post-emerge Herbicidal Activity SORHA ([23]; 63 g ai/ha): 90 | Pre-emerge Herbicidal Activity AMARE (phytotoxicity rating, scale 0-100) ([24]; 63 g ai/ha): 100

COc1c(Cl)cc(F)c(-n2c(=O)c(N)c(C(F)(F)F)n(C)c2=O)c1N [Compound 1-10]
Pre-emerge crop damage RICE (phytotoxicity rating, scale 0-100) ([1]; 63 g ai/ha): 0 | Pre-emerge crop damage RICE (phytotoxicity rating, scale 0-100) ([1]; 250 g ai/ha): 0 | Pre-emerge crop damage CORN (phytotoxicity rating, scale 0-100) ([2]; 63 g ai/ha): 0 | Pre-emerge crop damage CORN (phytotoxicity rating, scale 0-100) ([2]; 250 g ai/ha): 0 | Post-emerge Herbicidal Activity RICE (crop damage) ([3]; 63 g ai/ha): 0 | Post-emerge Herbicidal Activity RICE (crop damage) ([3]; 250 g ai/ha): 0 | Post-emerge Herbicidal Activity CORN (crop damage) ([4]; 63 g ai/ha): 0 | Post-emerge Herbicidal Activity CORN (crop damage) ([4]; 250 g ai/ha): 0 | Pre-emerge Herbicidal Activity SETVI (phytotoxicity rating, scale 0-100) ([5]; 63 g ai/ha): 0 | Pre-emerge Herbicidal Activity SETVI (phytotoxicity rating, scale 0-100) ([5]; 250 g ai/ha): 100 | Pre-emerge Herbicidal Activity CHEAL (phytotoxicity rating, scale 0-100) ([6]; 63 g ai/ha): 30 | Pre-emerge Herbicidal Activity CHEAL (phytotoxicity rating, scale 0-100) ([6]; 250 g ai/ha): 100 | Pre-emerge Herbicidal Activity ECHCG (phytotoxicity rating, scale 0-100) ([7]; 63 g ai/ha): 0 | Pre-emerge Herbicidal Activity ECHCG (phytotoxicity rating, scale 0-100) ([7]; 250 g ai/ha): 0 | Pre-emerge Herbicidal Activity CASOB (phytotoxicity rating, scale 0-100) ([8]; 63 g ai/ha): 20 | Pre-emerge Herbicidal Activity CASOB (phytotoxicity rating, scale 0-100) ([8]; 250 g ai/ha): 50 | Pre-emerge Herbicidal Activity IPOHE (phytotoxicity rating, scale 0-100) ([9]; 63 g ai/ha): 0 | Pre-emerge Herbicidal Activity IPOHE (phytotoxicity rating, scale 0-100) ([9]; 250 g ai/ha): 60 | Pre-emerge Herbicidal Activity AMBEL (phytotoxicity rating, scale 0-100) ([10]; 63 g ai/ha): 0 | Pre-emerge Herbicidal Activity AMBEL (phytotoxicity rating, scale 0-100) ([10]; 250 g ai/ha): 60 | Pre-emerge Herbicidal Activity DIGSA (phytotoxicity rating, scale 0-100) ([11]; 63 g ai/ha): 0 | Pre-emerge Herbicidal Activity DIGSA (phytotoxicity rating, scale 0-100) ([11]; 250 g ai/ha): 30 | Pre-emerge Herbicidal Activity ABUTH (phytotoxicity rating, scale 0-100) ([12]; 63 g ai/ha): 100 | Pre-emerge Herbicidal Activity ABUTH (phytotoxicity rating, scale 0-100) ([12]; 250 g ai/ha): 100 | Pre-emerge Herbicidal Activity SORHA (phytotoxicity rating, scale 0-100) ([13]; 63 g ai/ha): 0 | Pre-emerge Herbicidal Activity SORHA (phytotoxicity rating, scale 0-100) ([13]; 250 g ai/ha): 0 | Post-emerge Herbicidal Activity SETVI ([14]; 63 g ai/ha): 0 | Post-emerge Herbicidal Activity SETVI ([14]; 250 g ai/ha): 0 | Post-emerge Herbicidal Activity CHEAL ([15]; 63 g ai/ha): 10 | Post-emerge Herbicidal Activity CHEAL ([15]; 250 g ai/ha): 50 | Post-emerge Herbicidal Activity ECHCG ([16]; 63 g ai/ha): 0 | Post-emerge Herbicidal Activity ECHCG ([16]; 250 g ai/ha): 0 | Post-emerge Herbicidal Activity CASOB ([17]; 63 g ai/ha): 0 | Post-emerge Herbicidal Activity CASOB ([17]; 250 g ai/ha): 10 | Post-emerge Herbicidal Activity AMARE ([18]; 63 g ai/ha): 10 | Post-emerge Herbicidal Activity AMARE ([18]; 250 g ai/ha): 30 | Post-emerge Herbicidal Activity IPOHE ([19]; 63 g ai/ha): 20 | Post-emerge Herbicidal Activity IPOHE ([19]; 250 g ai/ha): 70 | Post-emerge Herbicidal Activity AMBEL ([20]; 63 g ai/ha): 0 | Post-emerge Herbicidal Activity AMBEL ([20]; 250 g ai/ha): 30 | Post-emerge Herbicidal Activity DIGSA ([21]; 63 g ai/ha): 0 | Post-emerge Herbicidal Activity DIGSA ([21]; 250 g ai/ha): 0 | Post-emerge Herbicidal Activity ABUTH ([22]; 63 g ai/ha): 30 | Post-emerge Herbicidal Activity ABUTH ([22]; 250 g ai/ha): 90 | Post-emerge Herbicidal Activity SORHA ([23]; 63 g ai/ha): 0 | Post-emerge Herbicidal Activity SORHA ([23]; 250 g ai/ha): 0 | Pre-emerge Herbicidal Activity AMARE (phytotoxicity rating, scale 0-100) ([24]; 63 g ai/ha): 70 | Pre-emerge Herbicidal Activity AMARE (phytotoxicity rating, scale 0-100) ([24]; 250 g ai/ha): 100
